In patent publication US20110158944A1, “BRAF BIOMARKERS” (priority 2007, published 2011) one finds IC50 data, which are given here for two molecules.

Read-outs that look alike come from different tables or passages of the source.

Common to all, as to assay type: cell-based
One assay deals with A375. Description: Cell proliferation IC50 (Cell Titer Glo). To be noted: Homo sapiens, A-375, 96 h, read-out: IC50 cell proliferation. On the procedure: (§1) IC50 Cell proliferation measurements. Cell proliferation was assessed in the 41 tumor cell lines set forth in Table 2 after 4 days of continuous exposure to either the ERK1/2 inhibitor, compound a or the MEK inhibitor compound b (PD0325901) using Promega Cell Titer Glo reagent (Promega Corp, Madison, Wis.). Promega's CellTiter-Glo™ Luminescent Cell Viability Assay is a sensitive method for assaying cell proliferation using a stable form of luciferase to measure ATP as an indicator of viable cells. This reagent allows a homogeneous method of determining cell number by quantitation of ATP. The luciferase luminescent signal produced is proportional to the number of viable cells present in culture.
(§2) A 1000× compound dose response curve, containing 8 dilutions of each compound, was prepared on a 96-well plate. Compounds were diluted in 100% DMSO to the following (1000×) concentrations: compound b: 1000 μM, 333 μM, 111 μM, 37 μM, 12 μM, 4.1 μM, 1.4 μM and 0.5 μM; compound a: 3000 μM, 1000 μM, 333 μM, 111 μM, 37 μM, 12 μM, 4.1 μM and 1.4 μM. This compound source plate was sealed and kept frozen between uses.
(§3) Cells were grown in RPMI 1640 medium supplemented with 10% Fetal Bovine Serum, 2 mM Glutamine and non-essential amino acids or DMEM/F12 Media containing the same supplements. On day zero, cells were trypsinized, counted and plated into wells of a 96-well Wallac TC Isoplate (Perkin-Elmer Wallac, Gaithersburg, Md.) at a density of 1500-2000 cells per well in 50 μl of complete media. An additional 6-8 replicate well of the cells at the same density were plated on a separate Wallac TC Isoplate. This plate was developed on day 1 to determine the cell-growth baseline.
(§4) On day 1 of treatment, compound was diluted to 2× in media and immediately added to the cells as follows: one ml of media was added to each well of a deep-well 96-well plate and 2 μl of 1000× compound was added with mixing to make 2× compound in media. 50 μl of the media containing 2× compound was added to the cell plates in duplicate points so the final concentrations for each well were as outlined in Table 1. The plates were then returned to a 37° C. incubator and left undisturbed for 4 days. The day 1 (baseline) plates were developed by first adding 50 μl media (without compound) to bring the volume in each well to 100 μl, then adding 100 μl of Cell Titer Glo reagent (as below).
(§5) After four days of treatment, the plates were developed with Cell Titer Glo (CTG) reagent (Promega Corp.; Madison, Wis.). Reagent was reconstituted as described in the product insert. 100 μl of reagent was added to all treatment and control wells and the plates were gently shaken for 5 minutes then incubated an additional 5 minutes before reading in an Analyst AD (Molecular Devices Corporation; Sunnyvale, Calif.) using the Luminescence settings.
(§6) Data was analyzed in Excel using XLfit 4.2, fit model #205 (Dose Response One Site)
On the technique in general: Cellular ATP, detected with luciferase, serves as a proxy for viable cell number.

Another assay has as its system Jijoye. Description: Cell proliferation IC50 (Cell Titer Glo). The note with it: Homo sapiens, 96 h, read-out: IC50 cell proliferation. On the procedure: as §1, §2, §3, §4, §5, §6
The subject of the next assay is 8505C. Description: Cell proliferation IC50 (Cell Titer Glo). The note with it: Homo sapiens, 96 h, read-out: IC50 cell proliferation. The method, then: as §1, §2, §3, §4, §5, §6
The test system of the next assay is RPMI-7951. Description: Cell proliferation IC50 (Cell Titer Glo). To be noted: Homo sapiens, read-out: IC50 cell proliferation. The method, then:
as §1, §2, §3, §4, §5, §6

The next assay concerns M14. Description: Cell proliferation IC50 (Cell Titer Glo). The note with it: Homo sapiens, read-out: IC50 cell proliferation. On the procedure:
as §1, §2, §3, §4, §5, §6

In a further assay the test system is SK-Mel-1. Nature of the assay: Cell proliferation IC50 (Cell Titer Glo). The note with it: Homo sapiens, read-out: IC50 cell proliferation. The method, then: as §1, §2, §3, §4, §5, §6
A further assay deals with Colo-205. Nature of the assay: Cell proliferation IC50 (Cell Titer Glo). To be noted: Homo sapiens, read-out: IC50 cell proliferation. On the procedure: as §1, §2, §3, §4, §5, §6
In a further assay the test system is Hs695T. Nature of the assay: Cell proliferation IC50 (Cell Titer Glo). To be noted: Homo sapiens, Hs 695T, 96 h, read-out: IC50 cell proliferation. The method, then:
as §1, §2, §3, §4, §5, §6

In another assay the test system is Hs294T. Description: Cell proliferation IC50 (Cell Titer Glo). To be noted: Homo sapiens, Hs 294T, 96 h, read-out: IC50 cell proliferation. The method, then:
as §1, §2, §3, §4, §5, §6

A further assay relates to ES-2. Description: Cell proliferation IC50 (Cell Titer Glo). The note with it: Homo sapiens, read-out: IC50 cell proliferation. The method, then: as §1, §2, §3, §4, §5, §6
The next assay has as its system SK-Mel-28. Description: Cell proliferation IC50 (Cell Titer Glo). The note with it: Homo sapiens, read-out: IC50 cell proliferation. The method, then:
as §1, §2, §3, §4, §5, §6

A further assay has as its system Malme 3M. Nature of the assay: Cell proliferation IC50 (Cell Titer Glo). To be noted: Homo sapiens, 96 h, read-out: IC50 cell proliferation. The method, then: as §1, §2, §3, §4, §5, §6
A further assay concerns U-937. Nature of the assay: Cell proliferation IC50 (Cell Titer Glo). The note with it: Homo sapiens, read-out: IC50 cell proliferation. The method, then: as §1, §2, §3, §4, §5, §6
In a further assay the test system is SJCRH30. Nature of the assay: Cell proliferation IC50 (Cell Titer Glo). The note with it: Homo sapiens, 96 h, read-out: IC50 cell proliferation. On the procedure:
as §1, §2, §3, §4, §5, §6

For assay [1], the system named is Cell lines with either the heterozygote V600E BRAF mutation or wild type BRAF genotype. Nature of the assay: Cell proliferation IC50 (Cell Titer Glo), summary by genotype. To be noted: Homo sapiens, read-out: IC50 cell proliferation. The method, then:
as §1, §2, §3
(§7) On day 1 of treatment, compound was diluted to 2× in media and immediately added to the cells as follows: one ml of media was added to each well of a deep-well 96-well plate and 2 μl of 1000× compound was added with mixing to make 2× compound in media. 50 μl of the media containing 2× compound was added to the cell plates in duplicate points so the final concentrations for each well were as outlined in Table 1. The plates were then returned to a 37° C. incubator and left undisturbed for 4 days. […]
(§8) After four days of treatment, the plates were developed with Cell Titer Glo (CTG) reagent (Promega Corp.; Madison, Wis.). […] 100 μl of reagent was added to all treatment and control wells and the plates were gently shaken for 5 minutes then incubated an additional 5 minutes before reading in an Analyst AD (Molecular Devices Corporation; Sunnyvale, Calif.) using the Luminescence settings.
as §6

For assay [2], the system named is V600E BRAF homozygous genotype cell lines. The assay is described as above. To be noted: Homo sapiens, read-out: IC50 cell proliferation. The method, then: as §1, §2, §3, §7, §8, §6

Consider `O=C(NOC[C@H](O)CO)c1ccc(F)c(F)c1Nc1ccc(I)cc1F` [cpd. b, PD0325901], for which the IC50 in the assay with A375 was 5 nM; with Jijoye, 1000 nM; in the assay with 8505C it was 10 nM; with RPMI-7951 (RPMI-7951, 96 h), 69 nM; in the assay with M14 (M14, 96 h), 3 nM; in the assay with SK-Mel-1 (SK-MEL-1, 96 h), 3 nM. Besides, the IC50 with Colo-205 (COLO 205, 96 h) amounted to 5 nM; with Hs695T, 29 nM; in the assay with Hs294T it was 71 nM; in the assay with ES-2 (ES-2, 96 h) it was 1000 nM; in the assay with SK-Mel-28 (SK-MEL-28, 96 h), 10 nM; in the assay with Malme 3M (Malme-3M) it was 10 nM. Also, the IC50 was 1000 nM with U-937 (U-937, 96 h); 1000 nM in the assay with SJCRH30; more than 10 nM in assay [1]; not above 10 nM in assay [2].

For the molecule `O=C(Nc1ccc2[nH]nc(-c3ccncc3)c2c1)C1CCN(CC(=O)N2CCN(c3ccc(-c4ncccn4)cc3)CC2)C1` (centres unmarked) [cpd. a], the IC50 with A375 (A375, Melanoma, BRAF V600E Homozygous, 4 days continuous exposure) was 75 nM; in the assay with Jijoye (Jijoye, Leukemia, BRAF V600V Wild type, 4 days continuous exposure) it was more than 3000 nM; with 8505C (Thyroid, BRAF V600E Homozygous, 4 days continuous exposure), 50 nM; with RPMI-7951 (96 h, RPMI-7951, Melanoma, BRAF V600E Heterozygous, 4 days continuous exposure), 344 nM; in the assay on M14 (96 h, M14, Melanoma, BRAF V600E Homozygous, 4 days continuous exposure) it was 40 nM; with SK-Mel-1 (96 h, SK-Mel-1, Melanoma, BRAF V600E Heterozygous, 4 days continuous exposure), 37 nM. The IC50 with Colo-205 (96 h, Colo-205, Colon, BRAF V600E Homozygous, 4 days continuous exposure) stood at 36 nM; in the assay with Hs695T (Hs695T, Melanoma, BRAF V600E Heterozygous, 4 days continuous exposure), 165 nM; in the assay on Hs294T (Hs294T, Melanoma, BRAF V600E Heterozygous, 4 days continuous exposure), 1720 nM; with ES-2 (96 h, ES-2, Ovarian, BRAF V600E Heterozygous, 4 days continuous exposure), 2660 nM; with SK-Mel-28 (96 h, SK-Mel-28, Melanoma, BRAF V600E Homozygous, 4 days continuous exposure), 85 nM; in the assay on Malme 3M (Malme 3M, Melanoma, BRAF V600E Homozygous, 4 days continuous exposure), 10 nM. The IC50 in the assay with U-937 (96 h, U-937, Leukemia, BRAF V600V Wild type, 4 days continuous exposure) is more than 3000 nM; in the assay on SJCRH30 (SJCRH30, Rhabdomyosarcoma, BRAF V600V Wild type, 4 days continuous exposure), 2000 nM; in assay [1] (25 of the 32 cell lines tested (heterozygote V600E or wild type BRAF)), more than 100 nM; in assay [2] (nine of the nine V600E BRAF homozygous genotype cell lines tested), less than 100 nM.
